The values that follow come from patent US9365558B2 (BRISTOL-MYERS SQUIBB COMPANY, priority 2013, dated 2016).

The assay concerns the target Human MGAT-2 (Homo sapiens (Human), UniProt Q3SYC2). The experiment in a line: MGAT LCMS Assay. The assay is classed as biochemical. To be noted: recombinant MGAT-2 membranes expressed in Sf9 cells; 100 μM 2-oleoylglycerol, 15 μM oleoyl-Coenzyme A; LC/MS of diolein; read-out: h-MGAT LCMS IC50. The procedure:
Assay plates were run through a fully automated robotics system and shaken for 5 seconds every minute for a total 10 minutes. The reactions were then quenched with 120 μL of ice cold methanol containing 1 μg/mL 1,2-distearoyl-rac-glycerol as the internal standard. Plates were shaken for 2 minutes and spun down to remove protein precipitation. After the spin, samples were transferred to LC/MS compatible PCR plates. For LC/MS analysis, a ThermoFisher Surveyor pump, utilizing a Waters Symmetry C8, 50×2.1 mm column, was used for the chromatography of enzyme products. The buffer system consists of 0.1% formic acid in water with a mobile phase consisting 0.1% formic acid in methanol. The shallow gradient is 90-100% mobile phase in 0.2 min with a total run time of 2.3 min. The first 0.5 minutes of each injection was diverted to waste to eliminate the presence of Phosphate buffer in the enzymatic reaction. The column was run at 0.6 mL/min and a temperature of 65° C. Mass spectrometry analysis of the samples was performed on a ThermoFisher Quantum Triple quad utilizing APCI (+) as the mode of ionization. […] The ratio of Diolein to internal standard (Peak Area Ratio) is utilized to calculate IC50 values.

Sequence of Human MGAT-2 (Q3SYC2 whole entry): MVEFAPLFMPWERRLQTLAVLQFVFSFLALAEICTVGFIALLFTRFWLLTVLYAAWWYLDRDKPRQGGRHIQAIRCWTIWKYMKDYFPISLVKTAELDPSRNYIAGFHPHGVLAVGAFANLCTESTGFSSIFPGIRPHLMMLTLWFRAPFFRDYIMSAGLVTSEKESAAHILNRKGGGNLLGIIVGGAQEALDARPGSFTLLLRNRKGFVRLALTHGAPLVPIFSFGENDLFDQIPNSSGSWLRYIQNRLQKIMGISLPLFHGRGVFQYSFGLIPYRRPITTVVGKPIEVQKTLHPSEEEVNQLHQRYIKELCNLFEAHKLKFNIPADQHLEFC

As a reminder, the IC50 is the concentration that gives 50% inhibition. For the molecule `CC(C)Cn1ccc(C2=C(C(=O)NS(=O)(=O)C3CC3)C(=O)N[C@@](c3ccc(CCCCC(F)(F)F)cc3F)(C(F)(F)F)C2)n1` [Example 54], the IC50 stood at 59 nM.

On to `CC(C)Cn1ccc(C2=C(C(=O)NS(=O)(=O)C3CC3)C(=O)N[C@@](c3ccc(OCCCC(F)(F)F)cc3F)(C(F)(F)F)C2)n1` [Example 55], for which the IC50 stood at 62 nM. For `O=C1N[C@@](c2ccc(OCCCC(F)(F)F)cc2F)(C(F)(F)F)CC(c2ccn(CC3CC3)n2)=C1C(=O)NS(=O)(=O)C1CC1` [Example 56] the value was 13 nM. Consider `O=C1N[C@@](c2ccc(OCCCC(F)(F)F)cc2F)(C(F)(F)F)CC(c2ccn(CC3CCC3)n2)=C1C(=O)NS(=O)(=O)C1CC1` [Example 57], for which the IC50 came out at 37 nM.

For `O=C1N[C@@](c2cnn(CCCCCC(F)(F)F)c2)(C(F)(F)F)CC(c2ccc3c(c2)CCCC3)=C1C(=O)NS(=O)(=O)C1CC1` [Example 58], the IC50 turned out to be 13 nM. As for `O=C1N[C@@](c2cnn(CCCCCC(F)(F)F)c2)(C(F)(F)F)CC(c2ccc(C3CC3)s2)=C1C(=O)NS(=O)(=O)C1CC1` [Example 59], the IC50 amounted to 4 nM. In the case of `C[C@@]1(c2ccc(OCCCC(F)(F)F)cc2)CC(c2ccn(CC3CC3)n2)=C(C(=O)NS(=O)(=O)C2CC2)C(=O)N1` [Example 60], the IC50 amounted to 34 nM. For `Cc1ccc(C2=C(C(=O)NS(N)(=O)=O)C(=O)N[C@@](c3ccc(OCCCC(F)(F)F)cc3)(C(F)(F)F)C2)cc1` [Example 61] the value was 45 nM; for `O=C1N[C@@](c2ccc(OCCCCC(F)(F)F)cc2)(C(F)(F)F)CC(c2ccc(C3CC3)s2)=C1C(=O)NS(=O)(=O)C1CC1` [Example 62], 8 nM. For the molecule `O=C1N[C@@](c2ccc(OCCCC(F)(F)F)cc2)(C(F)(F)F)CC(c2ccc(C3CC3)s2)=C1C(=O)NS(=O)(=O)C1CC1` [Example 63], the IC50 amounted to 5 nM.

For the molecule `CS(=O)(=O)NC(=O)C1=C(c2ccc(C3CC3)s2)C[C@](c2ccc(OCCCC(F)(F)F)cc2)(C(F)(F)F)NC1=O` [Example 64], the IC50 turned out to be 6 nM. For `CS(=O)(=O)NC(=O)C1=C(c2ccc(C3CC3)s2)C[C@](c2ccc(OCCCC(F)(F)F)cc2F)(C(F)(F)F)NC1=O` [Example 65] the value was 4 nM.

Turning to `CS(=O)(=O)NC(=O)C1=C(c2ccc3c(c2)CCC3)C[C@](c2ccc(OCCCC(F)(F)F)cc2F)(C(F)(F)F)NC1=O` [Example 66], the IC50 is 22 nM. For `CS(=O)(=O)NC(=O)C1=C(c2ccc(C(F)F)cc2)C[C@](c2ccc(OCCCCCC(F)(F)F)cc2F)(C(F)(F)F)NC1=O` [Example 67] the value was 1 nM; for `CS(=O)(=O)NC(=O)C1=C(c2ccc(C3CC3)cc2)C[C@](c2ccc(OCCCCCC(F)(F)F)cc2F)(C(F)(F)F)NC1=O` [Example 68], 1 nM.

For `Cc1ccc(C2=C(C(=O)NS(=O)(=O)C3CC3)C(=O)N[C@@](c3ccc(OCCCC(F)(F)F)cc3Cl)(C(F)(F)F)C2)cc1` [Example 69], the IC50 came out at 9 nM. Take `O=C1N[C@@](c2ccc(OCCCC(F)(F)F)cc2F)(C(F)(F)F)CC(c2ncc(C3CC3)s2)=C1C(=O)NS(=O)(=O)C1CC1` [Example 70]: the IC50 was 2 nM. Consider `CS(=O)(=O)NC(=O)C1=C(c2ccc(C(F)F)cc2)C[C@](c2ccc(OCCCC(F)(F)F)cc2F)(C(F)(F)F)NC1=O` [Example 71], for which the IC50 was 12 nM. For the molecule `CC(C)n1ccc(C2=C(C(=O)NS(=O)(=O)C3CC3)C(=O)N[C@@](c3ccc(OCCCCCC(F)(F)F)cc3)(C(F)(F)F)C2)c1` [Example 72], the IC50 amounted to 4 nM. Turning to `O=C1N[C@@](c2ccc(CCCCC(F)(F)F)cc2)(C(F)(F)F)CC(c2ccn(CC3CC3)n2)=C1C(=O)NS(=O)(=O)C1CC1` [Example 73], the IC50 came out at 2 nM.

`O=C1N[C@@](c2ccc(OCCCC(F)(F)F)cc2)(C(F)(F)F)CC(c2ccn(CC3CCC3)n2)=C1C(=O)NS(=O)(=O)C1CC1` [Example 74]: the IC50 was 17 nM. Take `CC(C)n1ccc(C2=C(C(=O)NS(=O)(=O)C3CC3)C(=O)N[C@@](c3ccc(CCCCC(F)(F)F)cc3)(C(F)(F)F)C2)n1` [Example 75]: the IC50 stood at 23 nM. As to `O=C1N[C@@](c2ccc(CCCCC(F)(F)F)cc2)(C(F)(F)F)CC(c2ccn(C3CC3)n2)=C1C(=O)NS(=O)(=O)C1CC1` [Example 76], the IC50 was 72 nM. Take `O=C1N[C@@](c2ccc(OCCCC(F)(F)F)cc2)(C(F)(F)F)CC(c2ccn(C3CCC3)n2)=C1C(=O)NS(=O)(=O)C1CC1` [Example 77]: the IC50 came out at 29 nM.

For the molecule `O=C1N[C@@](c2ccc(OCCCCCC(F)(F)F)cc2)(C(F)(F)F)CC(c2ccn(C3CC3)n2)=C1C(=O)NS(=O)(=O)C1CC1` [Example 78], the IC50 came to 25 nM. In the case of `O=C1N[C@@](c2ccc(OCCCCCC(F)(F)F)cc2)(C(F)(F)F)CC(c2ccn(CC3CC3)n2)=C1C(=O)NS(=O)(=O)C1CC1` [Example 79], the IC50 worked out at 3 nM. For `CC(C)Cn1ccc(C2=C(C(=O)NS(=O)(=O)C3CC3)C(=O)N[C@@](c3ccc(OCCCCCC(F)(F)F)cc3)(C(F)(F)F)C2)n1` [Example 81], the IC50 stood at 43 nM. As to `CCc1ccc(C2=C(C(=O)NS(=O)(=O)C3CC3)C(=O)N[C@](C)(c3ccc(OCCCC(F)(F)F)cc3)C2)cc1` [Example 82], the IC50 is 2 nM.

`CS(=O)(=O)NC(=O)C1=C(c2ccn(C3CC3)n2)C[C@](c2ccc(OCCCCCC(F)(F)F)cc2)(C(F)(F)F)NC1=O` [Example 83]: the IC50 came out at 6 nM.

As to `CC(C)(C)c1ccc(C2=C(C(=O)NS(C)(=O)=O)C(=O)N[C@](C)(c3ccc(OCCCC(F)(F)F)cc3)C2)cc1` [Example 85], the IC50 was 27 nM. For the molecule `CS(=O)(=O)NC(=O)C1=C(c2ccn(C3CC3)n2)C[C@](c2ccc(OCCCCCC(F)(F)F)cc2F)(C(F)(F)F)NC1=O` [Example 86], the IC50 was determined as 166 nM. `O=C1N[C@@](c2ccc(OCCCC(F)(F)F)cc2)(C(F)(F)F)CC(c2ccn(C3CC3)n2)=C1C(=O)NS(=O)(=O)C1CC1` [Example 87]: the IC50 amounted to 98 nM.

Take `O=C1N[C@@](c2ccc(OCCCC(F)(F)F)cc2)(C(F)(F)F)CC(c2ccn(CC3CC3)n2)=C1C(=O)NS(=O)(=O)C1CC1` [Example 88]: the IC50 came to 67 nM. The value for `O=C1N[C@@](c2ccc(OCCCCCC(F)(F)F)cc2F)(C(F)(F)F)CC(c2ccn(C3CC3)n2)=C1C(=O)NS(=O)(=O)C1CC1` [Example 89] was 6 nM.

For `CS(=O)(=O)NC(=O)C1=C(c2ccn(CC3CCC3)n2)C[C@](c2ccc(OCCCC(F)(F)F)cc2)(C(F)(F)F)NC1=O` [Example 90], the IC50 was determined as 8 nM. With `CS(=O)(=O)NC(=O)C1=C(c2ccn(CC3CC3)n2)C[C@](c2ccc(OCCCC(F)(F)F)cc2)(C(F)(F)F)NC1=O` [Example 91], the IC50 stood at 23 nM. Take `Cc1ccc(C2=C(C(=O)NS(=O)(=O)C3CC3)C(=O)N[C@@](c3cnn(CCCCCC(F)(F)F)c3)(C(F)(F)F)C2)cc1` [Example 93]: the IC50 came out at 179 nM. As for `O=C1N[C@@](c2cnn(CCCCCCC(F)(F)F)c2)(C(F)(F)F)CC(c2ccc3c(c2)CCCC3)=C1C(=O)NS(=O)(=O)C1CC1` [Example 94], the IC50 amounted to 4 nM. As to `O=C1N[C@@](c2cnn(CC/C=C/CCC(F)(F)F)c2)(C(F)(F)F)CC(c2ccc3c(c2)CCCC3)=C1C(=O)NS(=O)(=O)C1CC1` [Example 95], the IC50 turned out to be 88 nM. As to `CCOc1ccc(C2=C(C(=O)NS(=O)(=O)C3CC3)C(=O)N[C@@](c3ccc(OCCCC(F)(F)F)cc3F)(C(F)(F)F)C2)cc1` [Example 96], the IC50 worked out at 7 nM. As for `CCOc1ccc(C2=C(C(=O)NS(C)(=O)=O)C(=O)N[C@@](c3ccc(OCCCC(F)(F)F)cc3F)(C(F)(F)F)C2)cc1` [Example 97], the IC50 stood at 42 nM.

As to `Cc1ccc(C2=C(C(=O)NS(=O)(=O)C3CC3)C(=O)N[C@@](C3CCCCC3)(C(F)(F)F)C2)cc1` [Example 98], the IC50 was 22 nM. Take `[2H]C1([2H])C(c2ccc(OC)cc2)=C(C(=O)NS(=O)(=O)C2CC2)C(=O)N[C@@]1(c1ccc(OCCCCCC(F)(F)F)cc1F)C(F)(F)F` [Example 99]: the IC50 is 4 nM.
